Patent US6667387B1, “HCV core peptides” (priority 1992, dated 2003)
Ends that are not written are not given here. * marks the point of attachment. Biotin = O=C1N[C@H]2[C@H](CS[C@H]2CCCCC(=O)*)N1

Assays:
[1] = tested on: antibodies in sera from HCV-seropositive donors; experiment: ELISA with HCV antibody-positive sera (biotinylated peptides on streptavidin- or avidin-coated plates, unbiotinylated peptides coated directly); format: binding, human; details: for PEPTIDE ELISA (O.D.): Table 12, biotinylated 20-mers
In short: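 Peptides coated either directly at 2–5 or 3 μg/ml in carbonate buffer pH 9.6, or biotinylated at 1 μg/ml on streptavidin-coated wells (3 μg/ml). Plates casein-blocked, then human sera (1:100 or 1:20) incubated 1 h at 37° C. Bound antibody detected with HRP anti-human Ig/TMB, read as OD450.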

[2] = ELISA with seronegative / negative control sera (specificity); format: binding, human
In short: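 Specificity readout is OD at 450 nm (HRP goat anti-human Ig, TMB/H2O2, sulfuric acid stop), with ≥0.250 counted positive. Seronegative donor sera (typically 1:100, 1 h, 37° C) were applied to casein-blocked wells coated with peptide directly or via streptavidin capture of biotinylated peptide.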

[3] = Table 8, serum 8243 (HCV), Avidin
[4] = Table 8, serum 8247 (HCV), Avidin
[5] = Table 8, serum 8248 (HCV), Avidin
[6] = Table 8, serum 8269 (HCV), Avidin
[7] = Table 8, serum 8273 (HCV), Avidin
[8] = Table 8, serum 8278 (HCV), Avidin
[9] = Table 8, serum 8285 (HCV), Avidin
[10] = Table 8, serum 8290 (HCV), Avidin
[11] = Table 8, serum 8291 (HCV), Avidin
[12] = Table 8, serum 1782 (blood donor), Avidin
[13] = Table 8, serum 1784 (blood donor), Avidin
[14] = Table 8, serum 1785 (blood donor), Avidin
[15] = Table 8, serum 1794 (blood donor), Avidin

IIPDREVLYREFDEMEECSQ
optical density (450 nm) ([1]; Table 4F, serum 8315, 20-fold dilution): 2.672 | optical density (450 nm) ([1]; Table 4F, serum 8316, 20-fold dilution): 0.367 | optical density (450 nm) ([1]; Table 4F, serum 8317, 20-fold dilution): 1.634 | optical density (450 nm) ([1]; Table 4F, serum 8318, 20-fold dilution): 2.431 | optical density (450 nm) ([1]; Table 4F, serum 8320, 20-fold dilution): 0.896 | optical density (450 nm) ([1]; Table 4F, serum 8321, 20-fold dilution): 0.457 | optical density (450 nm) ([1]; Table 4F, serum 8326, 20-fold dilution): 2.540 | optical density (450 nm) ([1]; Table 5, sample 8242 (positive), peptide concentration 0.01 micrograms per milliliter, listed as HCV peptide IX): 0.215 | optical density (450 nm) ([1]; Table 5, sample 8242 (positive), peptide concentration 0.03 micrograms per milliliter, listed as HCV peptide IX): 0.496 | optical density (450 nm) ([1]; Table 5, sample 8242 (positive), peptide concentration 0.1 micrograms per milliliter, listed as HCV peptide IX): 0.911 | optical density (450 nm) ([1]; Table 5, sample 8242 (positive), peptide concentration 0.3 micrograms per milliliter, listed as HCV peptide IX): 0.795 | optical density (450 nm) ([1]; Table 5, sample 8242 (positive), peptide concentration 1.0 micrograms per milliliter, listed as HCV peptide IX): 0.777 | optical density (450 nm) ([1]; Table 5, sample 8242 (positive), peptide concentration 3.0 micrograms per milliliter, listed as HCV peptide IX): 0.791 | optical density (450 nm) ([1]; Table 5, sample 8243 (positive), peptide concentration 0.01 micrograms per milliliter, listed as HCV peptide IX): 0.639 | optical density (450 nm) ([1]; Table 5, sample 8243 (positive), peptide concentration 0.03 micrograms per milliliter, listed as HCV peptide IX): 1.421 | optical density (450 nm) ([1]; Table 5, sample 8243 (positive), peptide concentration 0.1 micrograms per milliliter, listed as HCV peptide IX): 1.834 | optical density (450 nm) ([1]; Table 5, sample 8243 (positive), peptide concentration 0.3 micrograms per milliliter, listed as HCV peptide IX): 1.892 | optical density (450 nm) ([1]; Table 5, sample 8243 (positive), peptide concentration 1.0 micrograms per milliliter, listed as HCV peptide IX): 1.953 | optical density (450 nm) ([1]; Table 5, sample 8243 (positive), peptide concentration 3.0 micrograms per milliliter, listed as HCV peptide IX): 1.959 | optical density (450 nm) ([1]; Table 5, sample 8320 (positive), peptide concentration 0.01 micrograms per milliliter, listed as HCV peptide IX): 0.461 | optical density (450 nm) ([1]; Table 5, sample 8320 (positive), peptide concentration 0.03 micrograms per milliliter, listed as HCV peptide IX): 1.007 | optical density (450 nm) ([1]; Table 5, sample 8320 (positive), peptide concentration 0.1 micrograms per milliliter, listed as HCV peptide IX): 1.244 | optical density (450 nm) ([1]; Table 5, sample 8320 (positive), peptide concentration 0.3 micrograms per milliliter, listed as HCV peptide IX): 1.798 | optical density (450 nm) ([1]; Table 5, sample 8320 (positive), peptide concentration 1.0 micrograms per milliliter, listed as HCV peptide IX): 0.802 | optical density (450 nm) ([1]; Table 5, sample 8320 (positive), peptide concentration 3.0 micrograms per milliliter, listed as HCV peptide IX): 1.779 | optical density (450 nm) ([1]; Table 5, sample 8326 (positive), peptide concentration 0.01 micrograms per milliliter, listed as HCV peptide IX): 1.812 | optical density (450 nm) ([1]; Table 5, sample 8326 (positive), peptide concentration 0.03 micrograms per milliliter, listed as HCV peptide IX): 2.193 | optical density (450 nm) ([1]; Table 5, sample 8326 (positive), peptide concentration 0.1 micrograms per milliliter, listed as HCV peptide IX): 2.284 | optical density (450 nm) ([1]; Table 5, sample 8326 (positive), peptide concentration 0.3 micrograms per milliliter, listed as HCV peptide IX): 2.271 | optical density (450 nm) ([1]; Table 5, sample 8326 (positive), peptide concentration 1.0 micrograms per milliliter, listed as HCV peptide IX): 2.271 | optical density (450 nm) ([1]; Table 5, sample 8326 (positive), peptide concentration 3.0 micrograms per milliliter, listed as HCV peptide IX): 2.284 | optical density (450 nm) [1, 3]: 1.213 | optical density (450 nm) [1, 4]: 0.756 | optical density (450 nm) [1, 5]: 0.047 | optical density (450 nm) [1, 6]: 0.051 | optical density (450 nm) [1, 7]: 0.053 | optical density (450 nm) [1, 8]: 0.074 | optical density (450 nm) [1, 9]: 0.270 | optical density (450 nm) [1, 10]: 0.048 | optical density (450 nm) [1, 11]: 0.052 | PEPTIDE ELISA (O.D.) ([1]; serum 0843): 2.206 | PEPTIDE ELISA (O.D.) ([1]; serum 8240): 0.142 | PEPTIDE ELISA (O.D.) ([1]; serum 8241): 0.421 | PEPTIDE ELISA (O.D.) ([1]; serum 8242): 2.114 | PEPTIDE ELISA (O.D.) ([1]; serum 8332): 0.392 | PEPTIDE ELISA (O.D.) ([1]; serum 8339): 2.497 | PEPTIDE ELISA (O.D.) ([1]; serum 8350): 1.779 | PEPTIDE ELISA (O.D.) ([1]; serum 8377): 2.360 | PEPTIDE ELISA (O.D.) ([1]; serum 8378): 1.859 | PEPTIDE ELISA (O.D.) ([1]; serum 8388): 2.300 | antibody binding to the 20-mers ([1]; serum 8241): very strong | optical density (450 nm) ([2]; Table 4F, negative serum): 0.005 | optical density (450 nm) ([2]; Table 5, sample 1747 (negative), peptide concentration 0.01 micrograms per milliliter, listed as HCV peptide IX): 0.043 | optical density (450 nm) ([2]; Table 5, sample 1747 (negative), peptide concentration 0.03 micrograms per milliliter, listed as HCV peptide IX): 0.044 | optical density (450 nm) ([2]; Table 5, sample 1747 (negative), peptide concentration 0.1 micrograms per milliliter, listed as HCV peptide IX): 0.042 | optical density (450 nm) ([2]; Table 5, sample 1747 (negative), peptide concentration 0.3 micrograms per milliliter, listed as HCV peptide IX): 0.046 | optical density (450 nm) ([2]; Table 5, sample 1747 (negative), peptide concentration 1.0 micrograms per milliliter, listed as HCV peptide IX): 0.049 | optical density (450 nm) ([2]; Table 5, sample 1747 (negative), peptide concentration 3.0 micrograms per milliliter, listed as HCV peptide IX): 0.051 | optical density (450 nm) ([2]; Table 5, sample 1781 (negative), peptide concentration 0.01 micrograms per milliliter, listed as HCV peptide IX): 0.049 | optical density (450 nm) ([2]; Table 5, sample 1781 (negative), peptide concentration 0.03 micrograms per milliliter, listed as HCV peptide IX): 0.048 | optical density (450 nm) ([2]; Table 5, sample 1781 (negative), peptide concentration 0.1 micrograms per milliliter, listed as HCV peptide IX): 0.047 | optical density (450 nm) ([2]; Table 5, sample 1781 (negative), peptide concentration 0.3 micrograms per milliliter): 0.051 | optical density (450 nm) ([2]; Table 5, sample 1781 (negative), peptide concentration 1.0 micrograms per milliliter, listed as HCV peptide IX): 0.051 | optical density (450 nm) ([2]; Table 5, sample 1781 (negative), peptide concentration 3.0 micrograms per milliliter): 0.053 | optical density (450 nm) [2, 12]: 0.062 | optical density (450 nm) [2, 13]: 0.050 | optical density (450 nm) [2, 14]: 0.050 | optical density (450 nm) [2, 15]: 0.098

Bio-Gly-Gly-Gly-Ile-Trp-Gly-Cys-Ser-Gly-Lys-Leu-Ile-Cys-NH2 (Biotin-GGGIWGCSGKLIC-NH2; cysteine pairing not given here) [TM-HIV-1 Bio]
optical density (450 nm) [1, 3]: 0.108 | optical density (450 nm) [1, 4]: 0.042 | optical density (450 nm) [1, 5]: 0.043 | optical density (450 nm) [1, 6]: 0.053 | optical density (450 nm) [1, 7]: 0.053 | optical density (450 nm) [1, 8]: 0.046 | optical density (450 nm) [1, 9]: 0.134 | optical density (450 nm) [1, 10]: 0.045 | optical density (450 nm) [1, 11]: 0.048 | optical density (450 nm) ([2]; Table 1, serum 180, seronegative donor): 0.005 | optical density (450 nm) ([2]; Table 1, serum 194, seronegative donor): 0.000 | optical density (450 nm) ([2]; Table 1, serum 195, seronegative donor): 0.000 | optical density (450 nm) ([2]; Table 1, serum 204, seronegative donor): 0.001 | optical density (450 nm) ([2]; Table 6, serum 1733, seronegative blood donor): 0.000 | optical density (450 nm) ([2]; Table 6, serum 1747, seronegative blood donor): 0.000 | optical density (450 nm) ([2]; Table 6, serum 1784, seronegative blood donor): 0.000 | optical density (450 nm) [2, 12]: 0.052 | optical density (450 nm) [2, 13]: 0.044 | optical density (450 nm) [2, 14]: 0.046 | optical density (450 nm) [2, 15]: 0.124
